Tests used:
Format in all cases: functional
UACC-257 = experiment: Growth inhibition of human UACC257 cells after 48 hrs by SRB staining method; conditions: UACC-257, 48 h
OVCAR-4 = experiment: Growth inhibition of human OVCAR4 cells after 48 hrs by SRB staining method; conditions: OVCAR-4, 48 h
HCT-116 = experiment: Growth inhibition of human HCT116 cells after 48 hrs by SRB staining method; conditions: HCT-116, 48 h
OVCAR-3 = experiment: Growth inhibition of human OVCAR-3 cells after 48 hrs by SRB staining method; conditions: OVCAR-3, 48 h
M14 = experiment: Growth inhibition of human M14 cells after 48 hrs by SRB staining method; conditions: M14, 48 h
MDA-MB-435 = experiment: Growth inhibition of human MDA-MB-435 cells after 48 hrs by SRB staining method; conditions: MDA-MB-435, 48 h
UACC-62 = experiment: Growth inhibition of human UACC62 cells after 48 hrs by SRB staining method; conditions: UACC-62, 48 h
SK-OV-3 = experiment: Growth inhibition of human SKOV3 cells after 48 hrs by SRB staining method; conditions: SK-OV-3, 48 h
LOX IMVI = experiment: Growth inhibition of human LOX IMVI cells after 48 hrs by SRB staining method
RXF 393 = experiment: Growth inhibition of human RXF393 cells after 48 hrs by SRB staining method; conditions: RXF 393, 48 h
DU-145 = experiment: Growth inhibition of human DU145 cells after 48 hrs by SRB staining method; conditions: DU-145, 48 h
HOP-62 = experiment: Growth inhibition of human HOP62 cells after 48 hrs by SRB staining method; conditions: HOP-62, 48 h
NCI/ADR-RES = experiment: Growth inhibition of human NCI/ADR-RES cells after 48 hrs by SRB staining method
786-0 = experiment: Growth inhibition of human 786-0 cells after 48 hrs by SRB staining method; conditions: 786-0, 48 h
MCF7 = experiment: Growth inhibition of human MCF7 cells after 48 hrs by SRB staining method; conditions: MCF7, 48 h
NCI-H322M = experiment: Growth inhibition of human NCI-H322M cells after 48 hrs by SRB staining method
OVCAR-8 = experiment: Growth inhibition of human OVCAR8 cells after 48 hrs by SRB staining method; conditions: OVCAR-8, 48 h
SK-MEL-5 = experiment: Growth inhibition of human SK-MEL-5 cells after 48 hrs by SRB staining method; conditions: SK-MEL-5, 48 h
NCI-H460 = experiment: Growth inhibition of human NCI-H460 cells after 48 hrs by SRB staining method; conditions: NCI-H460, 48 h
KM12 = experiment: Growth inhibition of human KM12 cells after 48 hrs by SRB staining method; conditions: KM12, 48 h
SR = experiment: Growth inhibition of human SR cells after 48 hrs by SRB staining method
TK-10 = experiment: Growth inhibition of human TK10 cells after 48 hrs by SRB staining method; conditions: TK-10, 48 h
HCT-15 = experiment: Growth inhibition of human HCT15 cells after 48 hrs by SRB staining method; conditions: HCT-15, 48 h
SF-268 = experiment: Growth inhibition of human SF268 cells after 48 hrs by SRB staining method; conditions: SF-268, 48 h
NCI-H522 = experiment: Growth inhibition of human NCI-H522 cells after 48 hrs by SRB staining method; conditions: NCI-H522, 48 h
SN12C = experiment: Growth inhibition of human SN12C cells after 48 hrs by SRB staining method
NCI-H23 = experiment: Growth inhibition of human NCI-H23 cells after 48 hrs by SRB staining method; conditions: NCI-H23, 48 h
OVCAR-5 = experiment: Growth inhibition of human OVCAR5 cells after 48 hrs by SRB staining method; conditions: OVCAR-5, 48 h
U-251 = experiment: Growth inhibition of human U251 cells after 48 hrs by SRB staining method; conditions: U-251, 48 h
EKVX = experiment: Growth inhibition of human EKVX cells after 48 hrs by SRB staining method
NCI-H226 = experiment: Growth inhibition of human NCI-H226 cells after 48 hrs by SRB staining method; conditions: NCI-H226, 48 h
SF-295 = experiment: Growth inhibition of human SF295 cells after 48 hrs by SRB staining method; conditions: SF-295, 48 h
[1] = read-out: pLC50 (the source's name) (converted)

COc1ccc(Nc2nc3cc(N)cc(N)c3nc2-c2ccccc2)cc1OC
GI50 (UACC-257): 35.5 µM
LC50 (UACC-257): > 100 µM
TGI (UACC-257; read-out: pTGI (converted)): > 100 µM
GI50 (OVCAR-4): 18.6 µM
LC50 (OVCAR-4): > 100 µM
TGI (OVCAR-4; read-out: pTGI (converted)): 52.5 µM
GI50 (HCT-116): 14.8 µM
LC50 (HCT-116): 58.9 µM
TGI (HCT-116; read-out: pTGI (converted)): 29.5 µM
GI50 (OVCAR-3): 30.2 µM
LC50 (OVCAR-3): > 100 µM
TGI (OVCAR-3; read-out: pTGI (converted)): > 100 µM
GI50 (M14): 20.9 µM
LC50 (M14): > 100 µM
TGI (M14; read-out: pTGI (converted)): 69.2 µM
GI50 (MDA-MB-435): 16.2 µM
CC50 (MDA-MB-435; [1]): 63.1 µM
TGI (MDA-MB-435; read-out: pTGI (converted)): 32.4 µM
GI50 (UACC-62): 13.5 µM
LC50 (UACC-62): 56.2 µM
TGI (UACC-62; read-out: pTGI (converted)): 27.5 µM
GI50 (SK-OV-3): 38 µM
CC50 (SK-OV-3; [1]): > 100 µM
TGI (SK-OV-3; read-out: pTGI (converted)): 87.1 µM
GI50 (LOX IMVI): 25.7 µM
LC50 (LOX IMVI): > 100 µM
TGI (LOX IMVI; read-out: pTGI (converted)): 72.4 µM
GI50 (RXF 393): 8.13 µM
CC50 (RXF 393; [1]): > 100 µM
TGI (RXF 393; read-out: pTGI (converted)): 49 µM
GI50 (DU-145): 44.7 µM
CC50 (DU-145; [1]): > 100 µM
TGI (DU-145; read-out: pTGI (converted)): > 100 µM
GI50 (HOP-62): 34.7 µM
LC50 (HOP-62): > 100 µM
TGI (HOP-62; read-out: pTGI (converted)): > 100 µM
GI50 (NCI/ADR-RES): 17.4 µM
CC50 (NCI/ADR-RES; [1]): > 100 µM
TGI (NCI/ADR-RES; read-out: pTGI (converted)): 42.7 µM
GI50 (786-0): 24 µM
CC50 (786-0; [1]): > 100 µM
TGI (786-0; read-out: pTGI (converted)): 91.2 µM
GI50 (MCF7): 20.4 µM
CC50 (MCF7; [1]): 97.7 µM
TGI (MCF7; read-out: pTGI (converted)): 44.7 µM
GI50 (NCI-H322M): > 100 µM
LC50 (NCI-H322M): > 100 µM
TGI (NCI-H322M; read-out: pTGI (converted)): 25.1 µM
GI50 (OVCAR-8): 33.9 µM
CC50 (OVCAR-8; [1]): > 100 µM
TGI (OVCAR-8; read-out: pTGI (converted)): > 100 µM
GI50 (SK-MEL-5): 12.3 µM
LC50 (SK-MEL-5): 53.7 µM
TGI (SK-MEL-5; read-out: pTGI (converted)): 25.7 µM
GI50 (NCI-H460): 20.4 µM
LC50 (concentration killing 50% of cells) (NCI-H460): > 100 µM
TGI (NCI-H460; read-out: pTGI (converted)): > 100 µM
GI50 (KM12): 14.8 µM
LC50 (KM12): 69.2 µM
TGI (KM12; read-out: pTGI (converted)): 32.4 µM
GI50 (SR): 2690 nM
CC50 (SR; [1]): > 100 µM
TGI (SR; read-out: pTGI (converted)): 21.9 µM
GI50 (TK-10): 20.9 µM
CC50 (TK-10; [1]): > 100 µM
TGI (TK-10; read-out: pTGI (converted)): 58.9 µM
GI50 (HCT-15): 28.8 µM
LC50 (HCT-15): > 100 µM
TGI (HCT-15; read-out: pTGI (converted)): > 100 µM
GI50 (SF-268): 14.1 µM
CC50 (SF-268; [1]): > 100 µM
TGI (SF-268; read-out: pTGI (converted)): 46.8 µM
GI50 (NCI-H522): 28.8 µM
LC50 (NCI-H522): > 100 µM
TGI (NCI-H522; read-out: pTGI (converted)): > 100 µM
GI50 (SN12C): 16.6 µM
CC50 (SN12C; [1]): > 100 µM
TGI (SN12C; read-out: pTGI (converted)): 43.7 µM
GI50 (NCI-H23): 26.3 µM
LC50 (NCI-H23): > 100 µM
TGI (NCI-H23; read-out: pTGI (converted)): 79.4 µM
GI50 (OVCAR-5): 29.5 µM
LC50 (OVCAR-5): > 100 µM
TGI (OVCAR-5; read-out: pTGI (converted)): 72.4 µM
GI50 (U-251): 25.7 µM
LC50 (50% lethal concentration) (U-251): > 100 µM
TGI (U-251; read-out: pTGI (converted)): > 100 µM
GI50 (EKVX): 25.7 µM
CC50 (EKVX; [1]): > 100 µM
TGI (EKVX; read-out: pTGI (converted)): 70.8 µM
GI50 (NCI-H226): 18.6 µM
LC50 (NCI-H226): > 100 µM
TGI (NCI-H226; read-out: pTGI (converted)): 57.5 µM
GI50 (SF-295): 17 µM
LC50 (SF-295): > 100 µM
TGI (SF-295; read-out: pTGI (converted)): 45.7 µM
